From US12540142B2, “Method for evaluating quality of (3S)-3-(4-(3-(1,4-dioxaspiro[4,5]dec-7-en-8-yl)benzyloxy)phenyl)hex-4-inoic acid” (Hyundai Pharm Co., Ltd., priority 2020, dated 2026)

Columns and labels:
[1] = research project title; no test described; cited from earlier work
[2] = research project title; no test described; cited from earlier work; remark: listed apart in the source
[3] = Related substance analysis by HPLC after refrigerated storage for about 2 years; type: physicochemical; details: substance stored under refrigerated conditions (5° C.±3° C.) for about 2 years; for Area %: HPLC 220 nm
Procedure: About 35 mg of a (3S)-3-(4-(3-(1,4-dioxaspiro[4,5]dec-7-en yl)benzyloxy)phenyl)hex-4-inoic acid-containing substance stored under refrigerated conditions (5° C.±3° C.) for about 2 years was accurately weighed and put into a 50-ml volume flask, a diluent was added to the flask at about ⅔ of the volume, and the resulting mixture was mixed well. Thereafter, a related substance was analyzed using HPLC (Agilent Technologies 1200 Series).
<HPLC conditions> Operation Parameters
Column: Kinetex EVO C18, 5 um, 4.6×250 mm
Column temperature: 25° C.
Sample concentration: 0.7 mg/ml
Mobile Phase A: 0.01 M K2HPO4 (pH 7)

[4] = Stress sample with oxidant (3% hydrogen peroxide), related substance analysis by HPLC; type: physicochemical; details: 3% hydrogen peroxide solution, room temperature, 24 hours; HPLC as in Example 1
Procedure: A stress sample stressed using an oxidant was prepared to confirm the production of the related substance. About 35 mg of a (3S)-3-(4-(3-(1,4-dioxaspiro[4,5]dec-7-en-8-yl)benzyloxy)phenyl)hex-4-inoic acid-containing substance stored under refrigerated conditions (5° C.±3° C.) for about 2 years was accurately weighed and put into a 50-ml volume flask. A diluent was added to the flask at about ⅔ of the volume, and the resulting mixture was mixed well. After 2 ml of a 3% hydrogen peroxide solution was added thereto, the resulting mixture was mixed well and marked with a diluent. The stress sample was left to stand at room temperature, and 24 hours later, the related substance was analyzed using HPLC (Agilent Technologies 1200 Series). The related substance was analyzed under the same conditions as in Example 1. As a result, it was confirmed that the related substance was produced from the stress sample (RRT 0.93, Area 3.83%). A comparison of the HPLC data of both samples using the sample of Example 1 as a control is shown in FIG. 4 (blue: control, green: stress sample). It was confirmed that the production of the related substance of Chemical Formula 2 in the stress sample was increased compared to the control.

| Area % [3] | Area % of related substance (RRT: 0.93) ([3]; HPLC) | Area of related substance produced (RRT 0.93) [4] | SMILES | EC50 [1] | hypoglycemic effect (HbA1c) [2] |
| --- | --- | --- | --- | --- | --- |
|  |  |  | CC#C[C@@H](CC(=O)O)c1ccc(OCc2cccc(C3=CCC4(CC3)OCCO4)c2)cc1 [HD-6277] | < 1 nM | > 1% |
| 98.9289% |  |  | CC#C[C@@H](CC(=O)O)c1ccc(OCc2cccc(C3=CCC4(CC3)OCCO4)c2)cc1 [Chemical Formula 1, (3S)-3-(4-(3-(1,4-dioxaspiro[4,5]dec-7-en-8-yl)benzyloxy)phenyl)hex-4-inoic acid] |  |  |
| 0.2566% | 0.26% | 3.83% | CC#C[C@@H](CC(=O)O)c1ccc(OCc2cccc(C34CCC5(CC3O4)OCCO5)c2)cc1 (stereo partly drawn) [Chemical Formula 2, (3S)-3-(4-((3-(7-oxaspiro[bicyclo[4.1.0]heptane-3,2′-[1,3]dioxolan]-6-yl)benzyl)oxy)phenyl)hex-4-inoic acid] |  |  |
